Point of comparison: `CC1(C)COCC(C)(C)N1N=O`, melting point 47 °C. Against it:
- CC1(COC(=O)Oc2c(F)c(F)c(F)c(F)c2F)COC(=O)OC1 — higher, 130 to 131 °C
- COCCNC(=O)c1cccc(-c2ccc3c(c2)C(c2cc(Cl)ccc2Cl)CC3)c1 (stereo not drawn) — higher, 116 °C
- CC(NO)c1ccc2c(c1)Sc1ccccc1O2 (stereo not drawn) — higher, 64 to 67 °C
- Oc1ccc(Oc2ccc(I)cn2)cc1 — higher, 110 °C
- CON=CC(C)(C)NC(=O)c1c(Cl)cccc1C(=O)Nc1ccc(OC(F)(F)F)cc1C — higher, 197 °C
- Cn1ccc(C(=O)c2ccc(O)c(Cl)c2Cl)n1 — higher, 220 to 222 °C
- Nc1nc(=O)n(CC2CC2)cc1F — higher, 224 to 226 °C
- O=C1C2=C(CCCC2)C(=O)N1c1c(F)cc(Cl)c2nc(Cl)sc12 — higher, 139 to 141 °C
- CCOC(=O)COCC(=O)c1ccccc1 — lower, 33 to 35 °C
- CC1(C)C(=O)Nc2ccc(-c3ccc(C#N)[nH]3)cc21 — higher, 256 to 258 °C
- Nc1nc(Nc2ccc3nc[nH]c3c2)sc1C(=O)c1cc(Cl)sc1Cl — higher, > 300 °C
- CC1(CNC(=O)C(F)(F)F)CN(c2c(F)cc3c(=O)c(C(=O)O)cn(C4CC4)c3c2F)C1 — higher, 232 to 237 °C
- NNC(=O)Nc1ccc(O)cc1 — higher, 184 to 186 °C
- O=C(c1ccccc1)n1ccc2ccccc21 — higher, 54 to 55 °C
- OC1(C(Cl)Cl)O[C@H](COCc2ccccc2)[C@@H](OCc2ccccc2)[C@H](OCc2ccccc2)[C@H]1OCc1ccccc1 (stereo partly drawn) — higher, 72 to 73 °C
- Cc1ccc(I)c(CO)c1 — higher, 82 to 85 °C
- Cc1cc(-n2cnnc2)cc2ccc(=O)[nH]c12 — higher, 369 to 371 °C
- Cc1ccc(S(=O)(=O)NCCCCOc2ccc(N)cc2)cc1 — higher, 176 to 178 °C
- CN1CCN(c2ccc([N+](=O)[O-])cc2)C1=O — higher, 207 to 208 °C
- COc1cc(Nc2c(C#N)cnc3cc(-c4ccc(CN(C)C)cc4)sc23)c(Cl)cc1Cl — higher, 224 to 225 °C
- Nc1ccc(Sc2ccccc2)cc1F — higher, 48 to 49 °C
- CC(C)NCC(O)c1cc(F)cc(C#N)c1 (stereo not drawn) — higher, 85.5 to 86.5 °C
- CCc1cn(C2CC(O)C(CCC(=O)C(C)Oc3ccc(Cl)cc3Cl)O2)c(=O)[nH]c1=O (mixture of isomers) — higher, 157 to 159 °C
- COc1cc(O)ccc1-c1ccc2cc(O)ccc2c1 — higher, 152 to 154 °C
- CN(C)CCCOc1ccccc1CNc1ccccc1 — higher, 67 to 69 °C
- NC(=O)c1sccc1SSc1ccsc1C(N)=O — higher, 222 to 223 °C
- COC(C)c1cccc(NC(=O)NCC(=O)N(CC(=O)N(C)c2ccccc2)c2ccccc2)c1 (racemic) — higher, 194 °C
- CCNC(=O)n1nc(Oc2c(Cl)cc(C(F)(F)F)cc2Cl)cc1C — higher, 80 to 82 °C
- CCCCC(CC)n1nnc2c(Nc3ccc(C(C)C)cc3Br)nc(C)cc21 (stereo not drawn) — higher, 73 to 74 °C
- O=C(c1ccccc1)N1CCC(C(Nc2ccc(F)cc2)c2ccc(F)cc2)CC1 (stereo not drawn) — higher, 157 to 158 °C
- CCCOc1ncc(NC(C)=O)cc1-c1nc2c(CCC)nn(C)c2c(=O)[nH]1 — higher, 252 to 253 °C
- OC(Cn1ccnc1)c1ccc2c(c1)Cc1ccccc1-2 (stereo not drawn) — higher, 196 to 199 °C
- CCCCCc1ccc2cc(O)ccc2c1 — higher, 94 to 95 °C
- Cc1ccc(/C=C/C(=O)O)n1Cc1ccc(Cl)cc1Cl — higher, 181 to 182 °C
- CCCCc1cc(OCCc2ccc(C(=O)O)cc2)c2ccccc2n1 — higher, 205 °C
- COc1nc(C(F)(F)F)cc(=O)n1-c1cc(OCCON=C(C)C)c(Cl)cc1F — higher, 136 to 138 °C
- O=c1[nH]c2cc(Br)c(F)c([N+](=O)[O-])c2[nH]c1=O — higher, 316 to 321 °C
- C#CCOC1(C(F)(F)F)CN(C)C(=O)Nc2ccc(Cl)cc21 (stereo not drawn) — higher, 230 to 232 °C
- CSc1nnc(-c2ccc(OCC(O)CNCCOc3ccc(O)c(C(N)=O)c3)cc2)n1C (stereo not drawn) — higher, 123 to 125 °C
- CCn1nc(Cc2c(Cl)cncc2Cl)c2ccc(OC)cc2c1=O — higher, 150 to 151 °C
- CSc1ncc(C(=O)Cc2c(Cl)cncc2Cl)cc1OC(C)C — higher, 124 to 125 °C
- CCCc1ccc2c(c1)C(=O)N(c1ccc(C(C)C(=O)O)cc1)C2 (stereo not drawn) — higher, 175 to 177 °C
- Cc1nc2c([N+](=O)[O-])cc(S(=O)(=O)N(C)C)cc2n1C — higher, 194 to 196 °C
- CCCCCCN(C)c1ccc(C=C2SC(=S)N(CC(=O)NS(=O)(=O)C(F)(F)F)C2=O)cc1 — higher, 94 to 97 °C
- CCN(c1ccc2c(c1)OCO2)c1nc(=O)c2cccnc2s1 — higher, 184 to 185 °C
- CC(C)(C)OC(=O)Nc1cc(N2CCC(OC3CCCCO3)C2)c(-c2ccc(F)cc2)cc1NC(=O)CC(=O)c1cccc(-n2ccnc2)c1 (stereo not drawn) — higher, 99 to 103 °C
- O=C(O)Cc1c(-c2ccccc2)nn(-c2ccc(Cl)cc2)c1-c1ccccc1 — higher, 193 to 194 °C
- COc1cc(Nc2c(C#N)cnc3cc(-c4csc(C=O)c4)sc23)c(Cl)cc1Cl — higher, 259 to 261 °C
- O=Nc1c(-c2ccccc2)nc2sccn12 — higher, 175 to 177 °C
- OC(c1ccccc1)c1ccccc1CNC(=S)NCCc1ccccc1 (stereo not drawn) — higher, 117 to 119 °C
- CC(C)(C)OC(=O)N1CCC(=O)N(CCCC=O)CC1 — higher, 86 to 87 °C
- CC12CCC3C(CCC4CC(=O)CC(C)(O)C43C)C1C(O)CC2=O (stereo not drawn) — higher, 227 to 229 °C
- CCCCCCCCCCCCCCOc1ccc(COC(=O)N(Cc2ccccn2)C(C)=O)cc1 — higher, 52 to 53 °C
- CCCCCCCNC(=O)Nc1ccccc1C(=O)Nc1c(C(C)C)cccc1C(C)C — higher, 123 to 125 °C
- CC(C)(C)c1ccc(C(=O)Nc2cn3cc(-n4ccnc4)ccc3n2)cc1 — higher, 289 to 291 °C
- CCN(CC)c1ccc(Cn2nc(-c3ccccc3O)nc2-c2ccccc2O)cc1 — higher, 125 to 127 °C
- Cc1cc(OS(=O)(=O)C(F)(F)F)c2cccc(OCc3ccccc3)c2n1 — higher, 158 °C
- C#CCNC(=O)c1ccccc1Nc1nc(Cl)ncc1Cl — higher, 188 to 191 °C
- COc1cc(C(=O)N(C(C)C)C2CCCCC2)ccc1Br — higher, 104 to 107 °C
- O=C(c1ccc(-c2ccccc2)cc1)N1Cc2ccccc2Nc2ccccc21 — higher, 180 to 182 °C
- CCCc1c(OCc2cccc(C(=O)OC)c2)ccc(C(C)=O)c1O — higher, 141 to 143 °C
- Cc1cccc(C)c1N(Cc1ccon1)C(=O)CCl — higher, 78 to 81 °C
- Cc1cc(S(=O)(=O)N2c3ccccc3CC2C(=O)NCCOc2ccc(CC(=O)O)cc2)ccc1-c1cccc(C(F)(F)F)c1 (stereo not drawn) — higher, 92 °C
- CN(C)S(=O)(=O)c1ccc2c(c1)CCC2=O — higher, 142 °C
- CCCCCCNC(=O)Oc1ccc2c(c1)CCCN2 — higher, 100 °C
- O=CCC(=O)Nc1ccccc1 — higher, 150 to 153 °C
- CC(C)(c1ccc2ncccc2c1)n1nnc2ccc(-c3ccc(C(=O)NC4CC4)c(F)c3)nc21 — higher, 156 to 159 °C
- CC(=O)OCC1OC(Oc2nc[nH]c2C(N)=O)C(OC(C)=O)C(OC(C)=O)C1OC(C)=O (stereo not drawn) — higher, 234 to 235 °C
- CCC1(CC)OC(=O)c2cc(N)ccc21 — higher, 153 to 154 °C
- Cc1nnc2n1-c1ccc(N)cc1C(c1ccccc1Cl)=CC2 — higher, 271 to 273 °C
- O=C(c1ccccc1)c1ccc(O)c(Cl)c1 — higher, 180 °C
- COc1ccc2c(Cc3c(Cl)cncc3Cl)n[nH]c(=O)c2c1 — higher, 259 to 262 °C
- Cn1nc(C(=O)NCc2ccc(Cl)cc2)c(=O)c2cc(I)cnc21 — higher, 207 to 208 °C
- C=CCC(O)(Cn1cncn1)C1(Cl)CC1 (stereo not drawn) — higher, 75 to 76 °C
- N#CCCN1CCN(P(=S)(N2CCN(CCC#N)CC2)N2CCN(CCC#N)CC2)CC1 — higher, 122 °C
- O=C(O)[C@H](Cc1ccccc1)NS(=O)(=O)c1ccc(Cl)cc1 — higher, 132 to 134 °C
- COc1ccc2c3c1OC1C(=O)CCC4(OC)C(C2)N(C)CCC314 (stereo not drawn) — higher, 140 to 142 °C
- Cn1c(=O)c2c(N)nccc2n(C)c1=O — higher, 229 to 230 °C
- Cn1nnnc1-c1cn(C)c2ccccc2c1=O — higher, 220 to 222 °C
- Cc1oc(-c2ccccc2)nc1COc1ccc2oc(CCCC#N)cc2c1 — higher, 114 to 115 °C
- CCOC(=O)C1CNc2cc([N+](=O)[O-])ccc2O1 (stereo not drawn) — higher, 88 to 90 °C
- Cc1cccc(C2CCN(C(=O)CCC(=O)c3ccc4c(c3)CCN(C(=O)C(F)(F)F)CC4)CC2)c1 — higher, 128 to 129 °C
- CCOC(=O)c1oc(-c2ccc(Cl)cc2)nc1C — higher, 80 to 81 °C
- CN1CCN(c2cc(Cl)cc3c2c(=O)n(Cc2cccc(O)c2)c(=O)n3Cc2ccccc2)CC1 — higher, 234 to 236 °C
- COC(=O)c1ccccc1-c1ccc(C(=C2CC(C)(C)CC(C)(C)C2)c2ccc(O)cc2)cc1 — higher, 177 to 178 °C
- CCCc1nc(OC)c(NC(=O)N2CCN(c3cc(OC)cc(OC)c3)CC2)cc1C — higher, 121 to 122 °C
- CC(C)(C)OC(=O)Nc1ccc(-c2cccc(F)c2)cc1NC(=O)CC(=O)c1cccc(C#N)c1 — higher, 148 to 150 °C
- COc1ccc(C=C2Cc3c(C)cc(C)c(O)c3C2=O)cc1 — higher, 192 to 193 °C
- CCCc1cc2c(c3ccc(O)cc13)OCc1cc(O)ccc1-2 — higher, 86 to 95 °C
- C=Cc1cnc(C)c(O)c1CS — higher, 198 to 200 °C
- O=c1[nH]c2cc([N+](=O)[O-])sc2[nH]c1=O — higher, > 300 °C
- C[Si](C)(C)Sc1nnnn1-c1ccccc1 — higher, 67 to 68 °C
- O=C1Cc2cc(Oc3ccccc3Cl)ccc2N1 — higher, 139 to 140 °C
- CCCc1nc2c(N)nc3ccc(C)cc3c2s1 — higher, 147 to 149 °C
- CCOC(=O)COc1cccc2c1CCCC2=O — higher, 58 to 60 °C
- CCOC(=O)C1=CC(C2CC2)c2nc3cc(F)c(F)cc3nc2C1=O (stereo not drawn) — higher, 230 °C
- NC(=O)C1CCC(=O)N1CC#CCN1CCCCC1 (stereo not drawn) — higher, 143 to 145 °C
- CCOC(=O)C1=C(C)Nc2ccnc(OC(C)C)c2C1c1cccc([N+](=O)[O-])c1 (stereo not drawn) — higher, 180 to 182 °C
- O=S(=O)(Cl)CCc1ccc(Cl)cc1 — higher, 87 to 87.5 °C
- CN1Cc2c(N)ncn2-c2ccccc2C1=O — higher, 202 to 204 °C
- COc1ccc2c(C(=O)c3ccc(OC4CCCC4N4CCCCC4)cc3)c(-c3ccc(OCCN4CCCC4)cc3)sc2c1 (stereo not drawn) — higher, 68 to 72 °C
- COC(=O)CCCc1cc2cc(Cl)ccc2n1S(=O)(=O)c1ccccc1 — higher, 109 to 112 °C
